Laboratory results published in patent US20180000817A1, “TREATMENT OF HUTCHINSON-GILFORD PROGERIA SYNDROME AND DISEASES RELATED TO VASCULAR AGEING” (BIOCANT - ASSOCIAÇÃO DE TRANSFERÊNCIA DE TECNOLOGIA, priority 2015, published 2018).

What was measured:
HGPS-iPSC SMCs [1] = assay: Cell detachment under arterial flow in microfluidic system (loss of function studies); assay type: cell-based, human; conditions: for HGPS-iPSC SMC detachment: both clones, arterial flow 20 dyne/cm^2, up to 12 days, MMP13 inhibitor 8 nM, BB-94 20 nM
Procedure: After 4 h, a confluent cell layer was formed, which was then perfused with SmGM-2 medium at physiological flow rate (20 dyne/cm^2). Unless specified, all tests were performed at day 0 and after 4 days on flow culture conditions. Cell number and cell clumps were determined on slides stained with DAPI (20×) and normalized by image area (0.3524 mm^2). Cell clumps areas were evaluated by Image J software.
In case of calcification inhibition studies, cells were treated with SmGM-2 medium containing sodium pyrophosphate (0.9 mM, Sigma), and in case of farnesyltrasferase inhibitor studies, cells were treated with SmGM-2 medium containing Tipifarnib (1 μM) or Lonafarnib (20 μM, Absouce Diagnostics). In MMP, calcification and farnesyltransferase inhibition studies, cells were perfused with medium containing the drug at a flow rate of 20 dyne/cm^2. Medium was changed every 7 days. Cell number and viability (Presto Blue assay) was monitored overtime. In case of MMP-13 inhibition studies, MMP activity was assessed at day 4, and the percentage of progerin positive cells and the expression of phosphatase alkaline were evaluated at day 7.
The complexation of siRNAs with lipofectamine was allowed to proceed for 40 min at room temperature. […] The culture media was changed after 72 h.

MMP-7 = biological target: T1, MMP-7 (Homo sapiens, UniProt P09237); conditions: cited from earlier work
T1 sequence (P09237 95-267): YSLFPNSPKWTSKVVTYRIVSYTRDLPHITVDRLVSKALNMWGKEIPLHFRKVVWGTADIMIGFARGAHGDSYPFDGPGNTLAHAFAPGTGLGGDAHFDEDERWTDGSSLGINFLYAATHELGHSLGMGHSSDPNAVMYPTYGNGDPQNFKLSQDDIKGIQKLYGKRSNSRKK

MMP-9 = MMP-9 (Homo sapiens, UniProt P14780); conditions: cited from earlier work
LmnaG609G/G609G mice = assay: In vivo treatment of progeria mice with BB-94; set-up: species or system mouse
Procedure: In vivo studies. 16 Lmna^G609G/G609G mice (male and female) were used. […] IP injections were used to administrate 30 mg/Kg/day of BB-94 in 3 mg/ml in PBS containing 0.01% Tween 80. The treatment was applied 5 times per week during 6 weeks (from week 5 to week 10). […] At the end of week 10 the mice were sacrificed and the selected parameters were evaluated.
Gene Expression Profiling using Fluidigm. Small parts of mice aortas were frozen to be analyzed. These parts were lysated and homogenized using a MagNA instrument and MagNA Lyser Green Beads (with 5 mm (diameter) stainless steel beads). Total RNA were then isolated and quantified. DELTAgene assays (FlexSix—Fluidigm) were designed for […] transcripts. The pre-amplification process was performed for 14 cycles in order to obtain sensitivity down to a single cDNA molecule. The oligos were synthesized by Sigma and dissolved at a concentration of 100 μM in water. For each assay a Primer Pair Mix was prepared containing 50 μM Forward Primer and 50 μM Reverse Primer. In order to prepare 10× Pre-amplification Primer Mix (500 nM each primer), 10 μL of each of the 96 Primer Pair Mixes (50 μM each primer) was mixed with […] buffer consisting of 10 mM Tris-HCl, pH 8.0; 0.1 mM EDTA; 0.25% Tween-20. In order to prepare 10× Assay (5 μM each primer) each Primer Pair Mix was diluted by mixing 10 μL Primer Pair Mix (50 μM each primer) with 90 μL buffer consisting of 10 mM Tris-HCl, pH 8.0; 0.1 mM EDTA; 0.25% Tween-20. A pre-mix containing cDNA and primers was done and treatment with exonuclease I was performed to remove non-hybridized primers. The Fluidigm® FLEXsix™ Gene expression IFC was used with EvaGreen chemistry. After a prime of the chip, a 10× assay mix and sample mix were prepared and pipetted into the inlets. The chip was loaded and data was collected using the BioMark HD™. Data was analyzed using Fluidigm® Real Time PCR Analysis v2.1 software.
So far no therapy has been developed to target specifically SMC loss. Most of the compounds identified so far in pre-clinical tests to treat progeria have been focused in the reduction of progerin quantities, by either reducing its production or increasing its degradation, in the reduction of progerin toxicity by targeting its aberrant prenylation, or identifying compounds capable of restoring pathological phenotypes downstream of progerin accumulation. Therefore we asked whether the inhibition of MMP13 in LmnaG609G/G609G mice could retard SMC loss. […] LmnaG609G/G609G mice (n=8 for treatment group and control group; age: 5 weeks) were IP injected 5 times a week (30 mg/Kg/day; 3 mg/mL in PBS). […] At this time point we evaluated SMC loss in the aortic arch.

HOZ mSMCs = assay: Detachment of progeria mouse SMCs under flow shear stress; assay type: cell-based; conditions: flow conditions, media supplemented with inhibitor
From the text: Mice. Male^LmnaG609G/G609G, and wild-type were used (Osorio F G, Navarro C L, Cadinanos J, Lopez-Mejia I C, Quiros P M, Bartoli C, Rivera J, Tazi J, Guzman G, Varela I, Depetris D, de Carlos F, Cobo J, Andres V, De Sandre-Giovannoli A, Freije J M, Levy N, Lopez-Otin C. Splicing-directed therapy in a new mouse model of human accelerated aging. Science translational medicine. 2011;3:106ra107). Animal studies were approved by the local <<comité d'éthique pour l'expérimentation animale>> (Marseille Animal Care Commitee, Protocol n° 96-21122012) and conformed to the Directive 2010/63/EU of the European parliament regarding the protection of animals used for experimental and other scientific purposes. Mouse vSMCs (mSMC) were prepared from thoracic aortas of 6 or 18 week-old mice. Briefly, after fat tissue removal around aortic region, aorta was dissected from its origin to the proximity of the diaphragm. Aortas from two mice were put into HBSS 1×, on ice then rinse once in HBSS. Aorta were digested 10 minutes at 37° C. in enzyme solution freshly prepared the day of isolation (Collagenase 1 mg/ml, Soybean Trypsin inhibitor 1 mg/ml, elastase 0.744 units/ml—Worthington biochemical—, penicillin/streptomycin 1%, HBSS 1×). […] The loss of mSMC during time was assessed by the percentage of occupied area.
We also analyzed the effect of MMP13 and BB94 inhibition in HOZ mSMCs. […]

HGPS-iPSC SMCs [2] = assay: Response to farnesyltransferase inhibitor: prelamin A and nuclear morphology by immunofluorescence; assay type: cell-based, human; conditions: one dose 1 μM, after 48 h
Procedure: To evaluate whether HGPS-iPSC SMCs could respond to farnesyltransferase inhibitors, as shown for other progeria cell models, cells were treated with one dose of Tipifarnib (1 μM) and after 48 h cells were characterized for the expression of prelamin A. As expected, HGPS-iPSC SMCs accumulate nuclear prelamin A (approximately 95% of the cells), as shown by immunofluorescence (FIG. 12).
Immunofluorescence analysis—In an embodiment, cells were washed with PBS, fixed with 4% paraformaldehyde (Electron Microscopy Sciences) for 15 min at room temperature and washed again with PBS. […] Binding of primary antibodies to specific cells was detected with anti-mouse IgG Cy3 (Sigma) or anti-rabbit IgG Cy3 (JacksonImmunoResearch). Cell nuclei were stained with 4′, 6′-diamidino-2-phenylindole (DAPI) (Sigma) and the slides examined with a regular (Zeiss) or high-content fluorescence microscope (IN Cell 2200, GE Healthcare). Image) software was used to quantify the overall intensity of each image, which was then normalized for cell number.

Chain of MMP-9 (P14780 94-707, species assumed): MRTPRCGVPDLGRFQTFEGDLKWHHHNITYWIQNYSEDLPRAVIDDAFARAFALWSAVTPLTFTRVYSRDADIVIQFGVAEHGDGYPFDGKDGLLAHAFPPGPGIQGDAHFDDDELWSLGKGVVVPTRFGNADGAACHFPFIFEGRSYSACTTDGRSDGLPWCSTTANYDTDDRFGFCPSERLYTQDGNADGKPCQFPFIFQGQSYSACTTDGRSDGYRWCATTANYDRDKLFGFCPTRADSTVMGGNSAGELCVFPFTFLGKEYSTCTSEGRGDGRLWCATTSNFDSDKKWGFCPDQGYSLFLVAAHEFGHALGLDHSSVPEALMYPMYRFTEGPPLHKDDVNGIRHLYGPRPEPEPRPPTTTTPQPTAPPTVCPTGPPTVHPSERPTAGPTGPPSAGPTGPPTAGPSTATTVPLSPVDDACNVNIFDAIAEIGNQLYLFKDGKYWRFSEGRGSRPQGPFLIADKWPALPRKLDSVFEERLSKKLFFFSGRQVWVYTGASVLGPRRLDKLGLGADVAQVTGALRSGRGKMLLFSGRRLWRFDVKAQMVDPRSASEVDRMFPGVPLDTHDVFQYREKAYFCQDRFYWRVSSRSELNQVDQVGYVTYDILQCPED

CNC(=O)[C@H](Cc1ccccc1)NC(=O)[C@H](CC(C)C)[C@H](CSc1cccs1)C(=O)NO [Batimastat, (2R,3S)-N4-Hydroxy-2-isobutyl-N1-[(2S)-1-(methylamino)-1-oxo-3-phenyl-2-propanyl]-3-[(2-thienylsulfanyl)methyl]succinamide]
HGPS-iPSC SMC detachment (HGPS-iPSC SMCs [1]): decreased significantly the detachment | IC50 (MMP-7): ≤ 20 nM | IC50 (MMP-9): ≤ 20 nM | solubility of the compound (LmnaG609G/G609G mice; 3 mg/mL in PBS, IP injection): low solubility | number of SMCs in aortic arch (LmnaG609G/G609G mice; IP 30 mg/Kg/day, 5 times per week, 6 weeks, cell nuclei counting and qRT-PCR, versus untreated animals): higher number of SMCs than untreated animals | progerin in cells isolated from aortic arch (LmnaG609G/G609G mice; IP 30 mg/Kg/day, 6 weeks): No evidence of decrease of progerin | intra-abdominal accumulation (precipitate) (LmnaG609G/G609G mice; IP 30 mg/Kg/day, treatment reduced from 10 to 6 weeks): intra-abdominal massive accumulation | detachment of HOZ mSMCs (HOZ mSMCs): significantly delayed

NC(=O)N1CCC(CC(=O)N2CCC([C@H]3c4ncc(Br)cc4CCc4cc(Cl)cc(Br)c43)CC2)CC1 [Lonafarnib]
cellular detachment (HGPS-iPSC SMCs [1]; HGPS-iPSC SMC clone 1, arterial flow, Tipifarnib 1 μM, Lonafarnib 20 μM): able to decrease cellular detachment

Cc1cc(CNC(=O)c2cc(C(=O)NCc3ccc(F)c(C)c3)ncn2)ccc1F [MMP-13 inhibitor, pyrimidine-4,6-dicarboxylic acid, bis-(4-fluoro-3-methyl-benzylamide)]
HGPS-iPSC SMC detachment (HGPS-iPSC SMCs [1]): decreased significantly the detachment | detachment of HOZ mSMCs (HOZ mSMCs): significantly delayed

Cn1cncc1[C@@](N)(c1ccc(Cl)cc1)c1ccc2c(c1)c(-c1cccc(Cl)c1)cc(=O)n2C [Tipifarnib]
cells accumulating nuclear prelamin A (HGPS-iPSC SMCs [2]): approximately 95 % of the cells

O=P([O-])([O-])OP(=O)([O-])[O-].[Na+].[Na+].[Na+].[Na+] [sodium pyrophosphate]
SMC detachment (HGPS-iPSC SMCs [1]; calcification inhibition, sodium pyrophosphate 0.9 mM, arterial flow): significant decreased in SMC detachment
